# Measurements reported in patent US20100041089A1, “IMPROVED METHOD FOR DETECTING CHEMICAL […]” (priority 2006, published 2010).
# Tested on: yeast genes (expressed mRNA)
# Assay: DNA chip measurement of expressed mRNA of yeast genes after culture with a toxic chemical substance
# Type: cell-based, Saccharomyces cerevisiae S288C
# Outline: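 Fluorescence ratio, treated over untreated, read by chip scanner; ratio of two or more counted significant. Cells: S288C yeast, YPD, 25° C, chemical added at log phase for 2 h at growth-inhibiting, sublethal level. Cy3/Cy5-labeled cDNA from oligo-dT-purified mRNA.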
structure (smiles),measurement,setting,value
"N#Cc1c(Cl)c(Cl)c(Cl)c(C#N)c1Cl [(9), 2,4,5,6-Tetrachloro-1,3-benzenedicarbonitrile]",The level of expressed mRNA in the presence of chemical substance/The level of expressed mRNA in the absence of chemical substance,"yeast gene YMR316W, cultured two hours with substance",2.1
same,The level of expressed mRNA in the presence of chemical substance/The level of expressed mRNA in the absence of chemical substance,"yeast gene YMR322C, cultured two hours with substance",21.3
same,The level of expressed mRNA in the presence of chemical substance/The level of expressed mRNA in the absence of chemical substance,"yeast gene YNL044W, cultured two hours with substance",0.8
same,The level of expressed mRNA in the presence of chemical substance/The level of expressed mRNA in the absence of chemical substance,"yeast gene YNL074C, cultured two hours with substance",1.5
same,The level of expressed mRNA in the presence of chemical substance/The level of expressed mRNA in the absence of chemical substance,"yeast gene YNL092W, cultured two hours with substance",2.3
same,The level of expressed mRNA in the presence of chemical substance/The level of expressed mRNA in the absence of chemical substance,"yeast gene YNL115C, cultured two hours with substance",2.6
same,The level of expressed mRNA in the presence of chemical substance/The level of expressed mRNA in the absence of chemical substance,"yeast gene YNL117W, cultured two hours with the chemical substance",12.8
same,The level of expressed mRNA in the presence of chemical substance/The level of expressed mRNA in the absence of chemical substance,"yeast gene YNL156C, cultured two hours with substance",2.4
same,The level of expressed mRNA in the presence of chemical substance/The level of expressed mRNA in the absence of chemical substance,"yeast gene YNL190W, cultured two hours with substance",1.1
same,The level of expressed mRNA in the presence of chemical substance/The level of expressed mRNA in the absence of chemical substance,"yeast gene YNL208W, cultured two hours with substance",2.3
same,The level of expressed mRNA in the presence of chemical substance/The level of expressed mRNA in the absence of chemical substance,"yeast gene YNL234W, cultured two hours with substance",2.6
same,The level of expressed mRNA in the presence of chemical substance/The level of expressed mRNA in the absence of chemical substance,"yeast gene YNL281W, cultured two hours with substance",2.8
same,The level of expressed mRNA in the presence of chemical substance/The level of expressed mRNA in the absence of chemical substance,"yeast gene YNL305C, cultured two hours with substance",2.9
same,The level of expressed mRNA in the presence of chemical substance/The level of expressed mRNA in the absence of chemical substance,yeast gene YNL331C,42.6
same,The level of expressed mRNA in the presence of chemical substance/The level of expressed mRNA in the absence of chemical substance,"yeast gene YNL331C, cultured for two hours with substance",42.6
same,The level of expressed mRNA in the presence of chemical substance/The level of expressed mRNA in the absence of chemical substance,"yeast gene YNR068C, cultured two hours with substance",6.7
same,The level of expressed mRNA in the presence of chemical substance/The level of expressed mRNA in the absence of chemical substance,"yeast gene YOL030W, cultured two hours with the chemical substance",1.2
same,The level of expressed mRNA in the presence of chemical substance/The level of expressed mRNA in the absence of chemical substance,"yeast gene YOL032W, cultured two hours with substance",4.5
same,The level of expressed mRNA in the presence of chemical substance/The level of expressed mRNA in the absence of chemical substance,"yeast gene YOL036W, cultured two hours with substance",3.1
same,The level of expressed mRNA in the presence of chemical substance/The level of expressed mRNA in the absence of chemical substance,"yeast gene YOL047C, cultured two hours with substance",0.6
same,The level of expressed mRNA in the presence of chemical substance/The level of expressed mRNA in the absence of chemical substance,"yeast gene YOL071W, cultured two hours with substance",4.4
same,The level of expressed mRNA in the presence of chemical substance/The level of expressed mRNA in the absence of chemical substance,"yeast gene YOL082W, cultured two hours with substance",3.4
same,The level of expressed mRNA in the presence of chemical substance/The level of expressed mRNA in the absence of chemical substance,"yeast gene YOL083W, cultured two hours with substance",2.7
same,The level of expressed mRNA in the presence of chemical substance/The level of expressed mRNA in the absence of chemical substance,"yeast gene YOL117W, cultured two hours with substance",1.3
same,The level of expressed mRNA in the presence of chemical substance/The level of expressed mRNA in the absence of chemical substance,"yeast gene YOL131W, cultured two hours with substance",8.4
same,The level of expressed mRNA in the presence of chemical substance/The level of expressed mRNA in the absence of chemical substance,"yeast gene YOL150C, cultured two hours with substance",10.8
same,The level of expressed mRNA in the presence of chemical substance/The level of expressed mRNA in the absence of chemical substance,"yeast gene YOL162W, cultured two hours with substance",12.0
same,The level of expressed mRNA in the presence of chemical substance/The level of expressed mRNA in the absence of chemical substance,yeast gene YOL165C,46.9
same,The level of expressed mRNA in the presence of chemical substance/The level of expressed mRNA in the absence of chemical substance,"yeast gene YOL165C, cultured for two hours with substance",46.9
same,The level of expressed mRNA in the presence of chemical substance/The level of expressed mRNA in the absence of chemical substance,"yeast gene YOR019W, cultured two hours with substance",3.5
same,The level of expressed mRNA in the presence of chemical substance/The level of expressed mRNA in the absence of chemical substance,"yeast gene YOR197W, cultured two hours with substance",0.8
same,The level of expressed mRNA in the presence of chemical substance/The level of expressed mRNA in the absence of chemical substance,"yeast gene YOR215C, cultured two hours with substance",2.1
same,The level of expressed mRNA in the presence of chemical substance/The level of expressed mRNA in the absence of chemical substance,"yeast gene YOR228C, cultured two hours with substance",1.4
same,The level of expressed mRNA in the presence of chemical substance/The level of expressed mRNA in the absence of chemical substance,"yeast gene YOR248W, cultured two hours with substance",0.1
same,The level of expressed mRNA in the presence of chemical substance/The level of expressed mRNA in the absence of chemical substance,"yeast gene YOR382W, cultured two hours with substance",1.1
same,The level of expressed mRNA in the presence of chemical substance/The level of expressed mRNA in the absence of chemical substance,"yeast gene YOR391C, cultured two hours with substance",18.8
same,The level of expressed mRNA in the presence of chemical substance/The level of expressed mRNA in the absence of chemical substance,"yeast gene YPL052W, cultured two hours with substance",2.0
same,The level of expressed mRNA in the presence of chemical substance/The level of expressed mRNA in the absence of chemical substance,"yeast gene YPL087W, cultured two hours with substance",1.0
same,The level of expressed mRNA in the presence of chemical substance/The level of expressed mRNA in the absence of chemical substance,"yeast gene YPL194W, DNA repair protein genes, cultured two hours with substance",9.6
same,The level of expressed mRNA in the presence of chemical substance/The level of expressed mRNA in the absence of chemical substance,"yeast gene YPL196W, cultured two hours with substance",10.9
same,The level of expressed mRNA in the presence of chemical substance/The level of expressed mRNA in the absence of chemical substance,"yeast gene YPL206C, cultured two hours with substance",1.7
same,The level of expressed mRNA in the presence of chemical substance/The level of expressed mRNA in the absence of chemical substance,"yeast gene YPL222W, cultured two hours with substance",7.4
same,The level of expressed mRNA in the presence of chemical substance/The level of expressed mRNA in the absence of chemical substance,yeast gene YPL223C (stress protein genes),29.4
same,The level of expressed mRNA in the presence of chemical substance/The level of expressed mRNA in the absence of chemical substance,"yeast gene YPL272C, cultured two hours with the chemical substance",1.2
same,The level of expressed mRNA in the presence of chemical substance/The level of expressed mRNA in the absence of chemical substance,"yeast gene YPL280W, cultured two hours with substance",49.8
same,The level of expressed mRNA in the presence of chemical substance/The level of expressed mRNA in the absence of chemical substance,"yeast gene YPR023C, cultured two hours with substance",4.4
same,The level of expressed mRNA in the presence of chemical substance/The level of expressed mRNA in the absence of chemical substance,"yeast gene YPR079W, cultured two hours with substance",1.7
same,The level of expressed mRNA in the presence of chemical substance/The level of expressed mRNA in the absence of chemical substance,"yeast gene YPR150W, cultured two hours with the chemical substance",1.2
same,The level of expressed mRNA in the presence of chemical substance/The level of expressed mRNA in the absence of chemical substance,"yeast gene YPR151C, cultured two hours with substance",3.0
same,The level of expressed mRNA in the presence of chemical substance/The level of expressed mRNA in the absence of chemical substance,yeast gene YPR167C,76.6
